# Experimental data: publication PMC8237267 (Journal of Medicinal Chemistry, 2021)
# Assays:
# [1] = In vivo PK study in CD-1 male mice; conditions: mouse, plasma, CD-1 mice, IP, 20 mg/kg
# [2] = tested on: acetylation of histone H3; test: Immunofluorescence assay in HeLa cells; type: cell-based; conditions: 6 h, increasing doses
# Procedure: (§1) HeLa cells were plated to subconfluency on a 96-well plate (clear bottom black from Fisher Scientific). As above, inhibitors were introduced following 24 h. The cells were washed with 1× PBS, fixed with 4% formaldehyde (Millipore Sigma), permeabilized with 1% Triton X-100 (Millipore Sigma), and blocked in 5% bovine serum albumin (BSA) (BioShop) for 1 h at room temperature. Following this treatment, the cells were incubated in a cocktail composed of acetylated α-tubulin mouse monoclonal (1:100 dilution, MD Millipore) and acetylated histone H3 (1:50 dilution, Ac-Lys18, Sigma) antibodies. Secondary antibodies anti-mouse Alexa Fluor 647 and anti-rabbit Alexa Fluor 488 were used for immunofluorescent detection. Cells were counterstained for nucleic acids using 4′,6-diamidino-2-phenylindole (DAPI) (ThermoFisher Scientific). The cells were imaged with a Cytation S63 spectrophotometer and the fluorescence intensity was determined using ImageJ (n = 3). Two-way ANOVA with Tukey’s multiple comparisons test were performed using GraphPad Prism 6.0 (GraphPad Software Inc.). A p-value ≤ 0.05 was considered significant.
# acetylation of α-tubulin = test: Immunofluorescence assay in HeLa cells; type: cell-based; conditions: 6 h, increasing doses
# Procedure: as §1
# [3] = tested on: cleavage of PARP-1 and Caspase-3; test: Western blot of apoptosis markers in MV4-11 cells; type: cell-based; conditions: MV4-11, 6 h, 0.5 μM
# Procedure: Briefly, MV4-11 cells were incubated with inhibitors prior to cell lysis with radioimmunoprecipitation assay (RIPA) buffer (20 mM Tris pH 7.4, 150 mM NaCl, 0.5% deoxycholate, 1% Triton X-100, and 0.1% sodium dodecyl sulfate (SDS)). Total protein content was determined through a BCA assay (ThermoFisher), resolved via a 4–20% polyacrylamide SDS gel, and transferred to a nitrocellulose membrane (Bio-Rad). The membranes were blocked with a 5% solution (skimmed milk powder in PBS-T). This was followed by incubation at 4 °C (overnight) with the following antibodies: acetylated α-tubulin mouse monoclonal (MABT868, EMD Millipore), acetylated histone H3 (Ac-Lys18, 07–354, Sigma), PARP-1 (ab227244, Abcam), apoptosis Western blot cocktail (136812, Abcam), cleaved PARP-1 (ab32561, Abcam), and HSC70 (sc-7298, Santa Cruz). Following overnight incubation, horseradish peroxidase (HRP)-conjugated goat anti-mouse IgG secondary antibody (7076, Cell Signaling) or HRP-linked anti-rabbit IgG secondary antibody (7074, Cell Signaling) was applied to the membrane in a 1:5000 dilution. The bands were visualized using clarity Western ECL substrate luminal/enhancer solution and peroxide solution. Western blotting analysis was carried out using Image lab software (Bio-Rad).[47],[50],[70]
compound,measurement,setting,value
"O=C(NO)c1ccc(CN(C2CC2)S(=O)(=O)c2cc(F)c(F)c(F)c2F)cc1 [Compound 14, 4-(((N-Cyclopropyl-2,3,4,5-tetrafluorophenyl)sulfonamido)methyl)-N-hydroxybenzamide]",Cmax at 24 h,[1],493 ng/mL
same,MRT at 24 h,[1],2.1 ± 0.5 h
same,AUC(0-t) at 24 h,[1]; read-out: In vivo AUClast (overall exposure),1580 ng·h/mL
same,half-life,[1]; read-out: In vivo t1/2,1.05 h
same,acetylation of histone H3 (immunofluorescence),[2],no observable change in acetylation of histone H3
same,acetylation of α-tubulin (immunofluorescence),acetylation of α-tubulin,significant acetylation of α-tubulin was observed
same,cleavage of PARP-1 and Caspase-3,[3],Cleavage of PARP-1 and Caspase-3
